The test system of test [1] is 8505C cells. Briefly: Glycogen content (colorimetric assay, TEM) in ATC cells. In kind it is cell-based, human. Conditions: for glycogen content: 8505C cells, overnight treatment. On the procedure:
Transmission Electron Microscopy of Glycogen Deposits—Cells were seeded in 10 cm dishes and allowed to adhere overnight. […] Cells were then rinsed with PBS and lifted with trypsin for preparation for TEM as described previously. Thwe et al., “Cell-intrinsic Glycogen Metabolism Supports Early Glycolytic Reprogramming Required for Dendritic Cell Immune Responses,” Cell Metabolism 26:558-567.e555 (2017), which is hereby incorporated by reference in its entirety.
PYGB RNA Interference—For validating successful PYGB knockdown, 4.0×10^4 cells were plated in 12 well plates containing 0.2% Lipofectamine™ 3000 Transfection Reagent and the indicated concentration of siRNA targeting PYGB or control siRNA in 1 ml CTM. RNA was extracted 72 hours later for RT-qPCR analysis and protein was extracted 96 hours later for immunoblotting. For measuring the effect of PYGB knockdown on cell viability, 1.0×10^3 cells were seeded in 96 well plates with 0.15% Lipofectamine™ 3000 Transfection Reagent and the indicated concentration of siRNA targeting PYGB or control siRNA in 200 μl CTM for 7 days before conducting the SRB assay. For measuring the effect of PYGB knockdown on glycogen content, 6.5×10^5 cells were seeded in 10 cm dishes with 0.2% Lipofectamine™ 3000 Transfection Reagent and the indicated concentration of siRNA targeting PYGB or control siRNA in 10 ml CTM for 4 days preceding cell lysis for glycogen determination.
Quantification of Levels of Glycogen, Glucose-1-Phosphate, Glucose-6-Phosphate, Lactate, ATP, Glucose, NADPH, and Glutathione—Briefly, cells were seeded in 10 cm dishes (for measuring glycogen and NADPH), 6 well plates (GIP, G6P, lactate, glucose, and glutathione), or 96 well plates (ATP) and allowed to adhere overnight. CTM was aspirated and cells were rinsed with PBS before application of compounds dissolved in CTM for 24 hours, at which point cells were ~90% confluent. CTM was then aspirated, cells were rinsed with PBS, and lysed according to the respective manufacturer protocol (see Table 4) for metabolite analysis.

The test system of test [2] is 8505C cells. The experiment in a line: SRB cell viability assay in ATC cells. The class given is cell-based, human. Conditions: 8505C ATC cells; indicated concentrations, 48 hours. The procedure:
In Vitro Cell Staining for Measuring Drug Efficacy—Thyroid cells (4.0×10^3) were seeded in 96 well plates with 100 μl CTM and allowed to adhere overnight. 100 μl of CTM containing 2× concentration of compound was overlayed in each well for 48 hours unless otherwise indicated. Each well then received 100 μl of 10% w/v cold trichloroacetic acid (Fisher) and incubated at 4° C. for 1 hour to fix the cells. Each well was rinsed 3× with DI H2O and stained with 100 μl 0.057% w/v sulforhodamine B (SRB, Sigma-Aldrich) for 30 minutes at room temperature in the dark. Wells were washed 4× with 300 μl 1% v/v acetic acid (Fisher), and remaining SRB stain was solubilized with 200 μl of 10 mM Tris buffer, pH 10.5 (Fisher). Absorbance was measured at 564 nm with a Synergy 2 Multi-Detection Microplate Reader (Agilent Technologies) and normalized to a vehicle control. Drug synergy was evaluated using the coefficient of drug interaction (CDI) formula: CDI=AB/(A×B)×100, where AB is the percent remaining cells of an indicated combination treatment, A is the average percent remaining cells of agent 1 alone, and B is the average percent remaining cells of agent 2 alone. […] Hao et al., “Effect of Lumiracoxib on Proliferation and Apoptosis of Human Nonsmall Cell Lung Cancer Cells In vitro,” Chin Med J (Engl) 121:602-607 (2008), which is hereby incorporated by reference in its entirety. […]

The conditions of test [3]: cited from earlier work.
The test system of test [4] is OCUT-2 cells. The experiment in a line: SRB cell viability assay in OCUT-2 cells. In kind it is cell-based, human. Conditions: indicated concentrations, 48 hours. The procedure: In Vitro Cell Staining for Measuring Drug Efficacy—Thyroid cells (4.0×10^3) were seeded in 96 well plates with 100 μl CTM and allowed to adhere overnight. 100 μl of CTM containing 2× concentration of compound was overlayed in each well for 48 hours unless otherwise indicated. Each well then received 100 μl of 10% w/v cold trichloroacetic acid (Fisher) and incubated at 4° C. for 1 hour to fix the cells. Each well was rinsed 3× with DI H2O and stained with 100 μl 0.057% w/v sulforhodamine B (SRB, Sigma-Aldrich) for 30 minutes at room temperature in the dark. Wells were washed 4× with 300 μl 1% v/v acetic acid (Fisher), and remaining SRB stain was solubilized with 200 μl of 10 mM Tris buffer, pH 10.5 (Fisher). Absorbance was measured at 564 nm with a Synergy 2 Multi-Detection Microplate Reader (Agilent Technologies) and normalized to a vehicle control. Drug synergy was evaluated using the coefficient of drug interaction (CDI) formula: CDI=AB/(A×B)×100, where AB is the percent remaining cells of an indicated combination treatment, A is the average percent remaining cells of agent 1 alone, and B is the average percent remaining cells of agent 2 alone. […] Hao et al., “Effect of Lumiracoxib on Proliferation and Apoptosis of Human Nonsmall Cell Lung Cancer Cells In vitro,” Chin Med J (Engl) 121:602-607 (2008), which is hereby incorporated by reference in its entirety.

In test [5] the test system is mouse embryonic fibroblasts. As to conditions: cited from earlier work.
In test [6] the target is T1, purified GYS1 (Homo sapiens, UniProt P13807).
T1 sequence (P13807 1-737): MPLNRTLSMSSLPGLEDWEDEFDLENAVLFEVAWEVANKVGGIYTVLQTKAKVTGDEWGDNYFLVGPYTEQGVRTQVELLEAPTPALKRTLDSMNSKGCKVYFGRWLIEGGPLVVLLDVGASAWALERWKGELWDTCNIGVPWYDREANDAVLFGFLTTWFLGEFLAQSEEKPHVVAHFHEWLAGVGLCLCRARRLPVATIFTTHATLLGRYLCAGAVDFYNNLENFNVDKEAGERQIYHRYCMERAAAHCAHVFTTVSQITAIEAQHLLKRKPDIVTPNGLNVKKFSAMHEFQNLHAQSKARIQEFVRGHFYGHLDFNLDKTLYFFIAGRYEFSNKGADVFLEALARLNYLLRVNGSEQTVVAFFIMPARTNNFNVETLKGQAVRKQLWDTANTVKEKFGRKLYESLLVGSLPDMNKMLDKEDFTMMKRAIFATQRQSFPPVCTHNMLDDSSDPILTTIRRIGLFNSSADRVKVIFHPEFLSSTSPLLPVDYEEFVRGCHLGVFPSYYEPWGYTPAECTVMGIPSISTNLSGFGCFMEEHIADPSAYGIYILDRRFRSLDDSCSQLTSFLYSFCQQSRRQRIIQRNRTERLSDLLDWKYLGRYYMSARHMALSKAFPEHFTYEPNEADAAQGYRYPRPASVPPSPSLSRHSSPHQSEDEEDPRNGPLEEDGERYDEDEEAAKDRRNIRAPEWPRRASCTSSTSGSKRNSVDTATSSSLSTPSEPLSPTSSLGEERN
As to conditions: cited from earlier work.

Test [7] has as its system cell lysates. Conditions: cited from earlier work.

Structures are written as SMILES. “Also recorded” adds a separate entry of the source.

On to `CON(C)C(=O)[C@H](O)[C@H](Cc1ccccc1)NC(=O)c1cc2cc(Cl)ccc2[nH]1` [CP316819, 5-chloro-N-[(2S,3R)-3-hydroxy-4-[methoxy(methyl)amino]-4-oxo-1-phenylbutan-2-yl]-1H-indole-2-carboxamide], for which, in test [1], the glycogen content result is given as “increased the glycogen content”. In addition, the “cell viability (SRB assay)” value in test [2] is “sensitive; also recorded: limited cell viability”. For the same molecule, in test [3], the “glycogen storage in rat brains” value was “enhanced glycogen storage in rat brains”.

`COc1ccccc1O` [guaiacol]: in test [1], the glycogen content result was “decrease”. Also, the “decrease of glycogen stores” value in test [1] (ATC cells, stated as comparable to the literature value) is on record as roughly 50%; in test [5], 50%. Further, the “cell viability (SRB assay)” value in test [2] and in test [4] was “decrease ATC cell viability” throughout.

Consider `Oc1ccc(-c2c(-c3ccc(O)c(O)c3O)n[nH]c2C(F)(F)F)cc1` [yGsy2p-IN-1], for which the glycogen content entry in test [1] is reported as “decrease glycogen content; also recorded: successfully reduced glycogen levels”. In addition, the “cell viability (SRB assay)” value in test [2] was “limit ATC viability; also recorded: limited cell viability in ATC cells”. In test [6], the “inhibition of purified GYS1” value is reported as “robustly inhibited purified GYS1”. The 14C-glucose incorporation result in test [7] is “decreased 14C-glucose incorporation in cell lysates”.

The values above are taken from patent US20260199289A1, “USE OF GLYCOGEN METABOLISM INHIBITORS FOR THE TREATMENT OF CANCER” (THE UNIVERSITY OF VERMONT AND STATE AGRICULTURAL COLLEGE, priority 2022, published 2026).
